Earlier results in patent US20140023695A1, “PATCH PREPARATION” (priority 2011, published 2014).

How the values were obtained:
serotonin 5-HT2 receptor = conditions: as compared to existing antipsychotic, haloperidol
dopamine D2 = dopamine D2 (Homo sapiens, UniProt P14416); conditions: as compared to existing antipsychotic, haloperidol
Chain of dopamine D2 (P14416 whole entry): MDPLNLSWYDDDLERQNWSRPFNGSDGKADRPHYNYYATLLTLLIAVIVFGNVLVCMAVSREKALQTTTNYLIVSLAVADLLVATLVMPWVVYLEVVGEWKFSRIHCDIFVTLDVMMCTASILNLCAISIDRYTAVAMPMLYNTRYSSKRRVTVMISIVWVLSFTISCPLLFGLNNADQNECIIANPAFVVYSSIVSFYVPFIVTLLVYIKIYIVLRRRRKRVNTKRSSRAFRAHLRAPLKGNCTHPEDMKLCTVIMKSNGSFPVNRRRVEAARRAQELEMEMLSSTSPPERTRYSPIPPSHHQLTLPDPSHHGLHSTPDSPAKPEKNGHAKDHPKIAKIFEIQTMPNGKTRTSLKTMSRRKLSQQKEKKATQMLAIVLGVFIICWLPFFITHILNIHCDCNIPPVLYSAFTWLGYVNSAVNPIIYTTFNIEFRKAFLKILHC

Question: Which “affinity for serotonin 5-HT2 receptor” value (serotonin 5-HT2 receptor) does the source give for `CCN1CCN(c2cc(-c3ccc(F)cc3)c3c(n2)CCCCCC3)CC1` [compound A, 2-(4-Ethyl-1-piperazinyl)-4-(4-fluorophenyl)-5,6,7,8,9,10-hexahydrocycloocta[b]pyridine] here?
Answer: higher affinity

Question: And the “affinity for dopamine D2” value (dopamine D2)?
Answer: higher affinity
